From patent US20260285850A1, “SUBSTITUTED OXAZOLIDINONES AND IMIDAZOLINONES AS HERBICIDES” (FMC CORPORATION, priority 2023, published 2026)

Experiments:
Type in all cases: in vivo
[1] = tested on: ducksalad (Heteranthera limosa); test: Test B flooded paddy test, visual plant response rating 0-100; settings: 250 g ai/ha, Flood, applied to paddy water, evaluated after 13 days
In short: (§1)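 In this flooded assay, 2-leaf seedlings received compound through the water layer, kept at 3 cm over the soil. Plants were held 13 days in a greenhouse and then visually compared with control pots.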

rice (Oryza sativa) = test: as above; settings: 250 g ai/ha, Flood, applied to paddy water, evaluated after 13 days
In short: as §1

[2] = tested on: barnyardgrass (Echinochloa crusgalli); test: as above; settings: 250 g ai/ha, Flood, applied to paddy water, evaluated after 13 days
In short: as §1

[3] = tested on: sedge, umbrella (small-flower umbrella sedge, Cyperus difformis); test: as above; settings: 250 g ai/ha, Flood, applied to paddy water, evaluated after 13 days
In short: as §1

[4] = tested on: ragweed (common ragweed, Ambrosia artemisiifolia); test: Test A preemergence soil spray, visual injury rating 0-100; settings: 0 to 100 scale, 10 days
In short: (§2)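 Rating: visual, day 10, untreated plants as reference, 0 no effect to 100 full control. Plants were in loam-sand and were treated either preemergence via directed soil spray or postemergence at the one- to two-leaf stage.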

[5] = tested on: wheat (Triticum aestivum); test: as above; settings: 0 to 100 scale, 10 days
In short: as §2

[6] = tested on: green foxtail (Setaria viridis); test: as above; settings: 0 to 100 scale, 10 days
In short: as §2

[7] = tested on: blackgrass (Alopecurus myosuroides); test: as above; settings: 0 to 100 scale, 10 days
In short: as §2

soybean (Glycine max) [8] = test: as above; settings: 0 to 100 scale, 10 days
In short: as §2

[9] = tested on: ryegrass, Italian (italian ryegrass, Lolium multiflorum); test: as above; settings: 0 to 100 scale, 10 days
In short: as §2

corn (Zea mays) [10] = test: as above; settings: 0 to 100 scale, 10 days
In short: as §2

[11] = tested on: oat, wild (wild oat, Avena fatua); test: as above; settings: 0 to 100 scale, 10 days
In short: as §2

kochia (Bassia scoparia) [12] = test: as above; settings: 0 to 100 scale, 10 days
In short: as §2

[13] = tested on: barnyardgrass (Echinochloa crus-galli); test: as above; settings: 0 to 100 scale, 10 days
In short: as §2

[14] = tested on: palmer (palmer amaranth, palmer pigweed, Amaranthus palmeri); test: as above; settings: 0 to 100 scale, 10 days
In short: as §2

[15] = tested on: ragweed (common ragweed, Ambrosia artemisiifolia); test: Test A postemergence application, visual injury rating 0-100; settings: Postemergence
In short: as §2

[16] = tested on: wheat (Triticum aestivum); test: as above; settings: Postemergence
In short: as §2

[17] = tested on: horseweed (Erigeron canadensis); test: as above; settings: Postemergence
In short: as §2

[18] = tested on: green foxtail (Setaria viridis); test: as above; settings: Postemergence
In short: as §2

[19] = tested on: blackgrass (Alopecurus myosuroides); test: as above; settings: Postemergence
In short: as §2

soybean (Glycine max) [20] = test: as above; settings: Postemergence
In short: as §2

[21] = tested on: ryegrass, Italian (italian ryegrass, Lolium multiflorum); test: as above; settings: Postemergence
In short: as §2

corn (Zea mays) [22] = test: as above; settings: Postemergence
In short: as §2

[23] = tested on: galium (catchweed bedstraw, Galium aparine); test: as above; settings: Postemergence
In short: as §2

[24] = tested on: oat, wild (wild oat, Avena fatua); test: as above; settings: Postemergence
In short: as §2

kochia (Bassia scoparia) [25] = test: as above; settings: Postemergence
In short: as §2

[26] = tested on: barnyardgrass (Echinochloa crus-galli); test: as above; settings: Postemergence
In short: as §2

[27] = tested on: palmer (palmer amaranth, palmer pigweed, Amaranthus palmeri); test: as above; settings: Postemergence
In short: as §2

[28] = 8 g ai/ha, 10 days, 0 is no effect, 100 is complete control
[29] = 31 g ai/ha, greenhouse 10 days, 0 no effect, 100 complete control

Structure (SMILES): CC1(C(=O)NC2C=CC(C(=O)NS(=O)(=O)C3CC3)C2)CN(c2cc(F)cc(F)c2)C(=O)O1 (stereo not shown) [Compound 87]
- Plant response rating, Ducksalad (0 to 100 scale, 0 is no effect and 100 is complete control) [1]: 0
- Plant response rating, Rice (0 to 100 scale, 0 is no effect and 100 is complete control) (rice (Oryza sativa)): 0
- Plant response rating, Barnyardgrass (0 to 100 scale, 0 is no effect and 100 is complete control) [2]: 0
- Plant response rating, Sedge, Umbrella (0 to 100 scale, 0 is no effect and 100 is complete control) [3]: 0
- Ragweed plant response rating ([4]; 8 g ai/ha): 10
- Ragweed plant response rating ([4]; 31 g ai/ha): 10
- Wheat plant response rating ([5]; 8 g ai/ha): 0
- Wheat plant response rating ([5]; 31 g ai/ha): 20
- Foxtail, Green plant response rating ([6]; 8 g ai/ha): 30
- Foxtail, Green plant response rating ([6]; 31 g ai/ha): 20
- Blackgrass plant response rating ([7]; 8 g ai/ha): 10
- Blackgrass plant response rating ([7]; 31 g ai/ha): 20
- Soybean plant response rating (soybean (Glycine max) [8]; 8 g ai/ha): 0
- Soybean plant response rating (soybean (Glycine max) [8]; 31 g ai/ha): 0
- Ryegrass, Italian plant response rating ([9]; 8 g ai/ha): 0
- Ryegrass, Italian plant response rating ([9]; 31 g ai/ha): 30
- Corn plant response rating (corn (Zea mays) [10]; 8 g ai/ha): 0
- Corn plant response rating (corn (Zea mays) [10]; 31 g ai/ha): 0
- Oat, Wild plant response rating ([11]; 8 g ai/ha): 0
- Oat, Wild plant response rating ([11]; 31 g ai/ha): 0
- Kochia plant response rating (kochia (Bassia scoparia) [12]; 8 g ai/ha): 0
- Kochia plant response rating (kochia (Bassia scoparia) [12]; 31 g ai/ha): 10
- Barnyardgrass plant response rating ([13]; 8 g ai/ha): 0
- Barnyardgrass plant response rating ([13]; 31 g ai/ha): 90
- Pigweed, Palmer plant response rating ([14]; 8 g ai/ha): 10
- Amaranth, Palmer (Pigweed, Palmer) plant response rating ([14]; 31 g ai/ha): 90
- Ragweed plant response rating (0 to 100 scale) [15, 28]: 10
- Ragweed plant response rating (0 to 100 scale) [15, 29]: 50
- Wheat plant response rating (0 to 100 scale) [16, 28]: 0
- Wheat plant response rating (0 to 100 scale) [16, 29]: 100
- Horseweed plant response rating (0 to 100 scale) [17, 28]: 20
- Horseweed plant response rating (0 to 100 scale) [17, 29]: 30
- Foxtail, Green plant response rating (0 to 100 scale) [18, 28]: 0
- Foxtail, Green plant response rating (0 to 100 scale) [18, 29]: 40
- Blackgrass plant response rating (0 to 100 scale) [19, 28]: 0
- Blackgrass plant response rating (0 to 100 scale) [19, 29]: 30
- Soybean plant response rating (0 to 100 scale) (soybean (Glycine max) [20]; [28]): 20
- Soybean plant response rating (0 to 100 scale) (soybean (Glycine max) [20]; [29]): 50
- Ryegrass, Italian plant response rating (0 to 100 scale) [21, 28]: 20
- Ryegrass, Italian plant response rating (0 to 100 scale) [21, 29]: 50
- Corn plant response rating (0 to 100 scale) (corn (Zea mays) [22]; [28]): 0
- Corn plant response rating (0 to 100 scale) (corn (Zea mays) [22]; [29]): 80
- Galium plant response rating (0 to 100 scale) [23, 28]: 50
- Galium plant response rating (0 to 100 scale) [23, 29]: 70
- Oat, Wild plant response rating (0 to 100 scale) [24, 28]: 20
- Oat, Wild plant response rating (0 to 100 scale) [24, 29]: 90
- Kochia plant response rating (0 to 100 scale) (kochia (Bassia scoparia) [25]; [28]): 30
- Kochia plant response rating (0 to 100 scale) (kochia (Bassia scoparia) [25]; [29]): 80
- Barnyardgrass plant response rating (0 to 100 scale) [26, 28]: 50
- Barnyardgrass plant response rating (0 to 100 scale) [26, 29]: 100
- Pigweed, Palmer plant response rating (0 to 100 scale) [27, 28]: 30
- Amaranth, Palmer / Pigweed, Palmer plant response rating (0 to 100 scale) [27, 29]: 70
